{"source": "patent US9987329B2", "about": "“Methods for treating peripheral nerve damage” (Cornell University, priority 2014, dated 2018)", "molecules": {"B1": {"name": "soluble VEGFR1: recombinant human-soluble VEGFR1 (sVEGFR1/sFlt1, CellSciences CRF103) (protein)", "chain": "SKLKDPELSLKGTQHIMQAGQTLHLQCRGEAAHKWSLPEMVSKESERLSITKSACGRNGKQFCSTLTLNTAQANHTGFYSCKYLAVPTSKKKETESAIYIFISDTGRPFVEMYSEIPEIIHMTEGRELVIPCRVTSPNITVTLKKFPLDTLIPDGKRIIWDSRKGFIISNATYKEIGLLTCEATVNGHLYKTNYLTHRQTNTIIDVQISTPRPVKLLRGHTLVLNCTATTPLNTRVQMTWSYPDEKNKRASVRRRIDQSNSHANIFYSVLTIDKMQNKDKGLYTCRVRSGPSFKSVNTSVHIYDKAFITVKHRKQQVLETVAGKRSYRLSMKVKAFPSPEVVWLKDGLPATEKSARYLTRGYSLIIKDVTEEDAGNYTILLSIKQSNVFKNLTATLIVNVKPQIYEKAVSSFPDPALYPLGSRQILTCTAYGIPQPTIKWFWHPCNHNHSEARCDFCSNNEESFILDADSNMGNRIESITQRMAIIEGKNKMASTLVVADSRISGIYICIASNKVGTVGRNISFYITDVPNGFHVNLEKMPTEGEDLKLSCTVNKFLYRDVTWILLRTVNNRTMHYSISKQKMAITKEHSITLNLTIMNVSLQDSGTYACRARNVYTGEEILQKKEITIRGEHCNKKAVFSRISKFKSTRNDCTTQSNVKH"}, "B2": {"name": "VEGF-A: vascular endothelial growth factor A; 232 amino acid protein, NextProt NX_P15692, SEQ ID NO. 2 (protein, listed as Homo sapiens)", "chain": "MNFLLSWVHWSLALLLYLHVKFMDVYQRSYCHPIETLVDIFQEYPDEIEYIFKPSCVPLMRCGGCCNDEGLECVPTEESNITMQIMRIKPHQGQHIGEMSFLQHNKCECRPKKDRARQEKKSVRGKGKGQKRKRKKSRYKSWSVYVGARCCLMPWSLPGPHPCGPCSERRKHLFVQDPQTCKCSCKNTDSRCKARQLELNERTCRCDKPRRHAKWSQAAPMAEGGGQNHHEV"}}, "key": {"[1]": {"tested_on": "trigeminal ganglion (TG) neuronal cells", "test": "Inhibition of VEGF-B induced neurite growth in TG neurons", "format": "cell-based, mouse", "conditions": "3 days", "method": "(§1) Trigeminal ganglion (TG) neuronal cells were obtained and cultured as described previously. Pan, Z., Fukuoka et al., FASEB J. 27, 2756-2767 (2013). To evaluate the effect of VEGF-B on neuronal growth, TG neuronal cells were treated with 10-100 ng/ml recombinant mouse VEGF-B^186 (R&D 767-VE-010). The VEGF-B treatments were replenished every other day. Neurite formation and growth was followed up to 3 days. […] VEGF receptors were inhibited by using neutralizing antibodies against VEGFR1 (R&D AF471), VEGFR2 (R&D MAB4431) and Neuropilin 1 (NRP1) (R&D MAB566). TG cells were incubated in a dose dependent manner with anti-VEGFR1, anti-VEGFR2 or anti-NRP1 for 1 hour prior to the addition of 50 ng/ml VEGF-B. The tyrosine kinase domains of VEGFR2 were inhibited with specific inhibitors by incubating TG neuronal cells with 10 μM SU 1498 (Sigma T4192) or 5 nM Ki 8751 (Sigma K1265) for 1 hr before adding 50 ng/ml VEGF-B. All neurite growth was imaged with an AxioObserver Z1 fluorescence microscope in the YFP channel attached to an AxioCam HRm digital camera (Zeiss) operated by AxioVision 4.0 software. Images were analyzed using Neurolucida 9 (MBF Bioscience) a quantitative nerve tracing software."}, "[2]": {"tested_on": "Human corneal limbal epithelial (HCLE) cells", "test": "In vitro scratch wound assay", "format": "cell-based", "conditions": "10 ng/ml", "method": "Human corneal limbal epithelial (HCLE) cells were cultured in 6-well plates until confluency as described. Pan, Z., Fukuoka et al., FASEB J. 27, 2756-2767 (2013). Cells were starved in KSFM medium (gibco 10724-011) without supplements for 24 h. Then a straight-line scratch mark was made in each well with a 200 ul pipette tip. KSFM medium supplemented with VEGF-B^186 (50 ng/ml) or EGF (10 ng/ml, Millipore 01-101) was added to the wells. Scratch areas were imaged at 0, 8, 24 and 48 hours at the same locations using the mark and find module of the Axiovision software and the wound closure analyzed by Photoshop."}, "[3]": {"tested_on": "trigeminal ganglion (TG) neuronal cells", "test": "Trigeminal ganglion neuronal growth assay", "format": "cell-based, mouse", "conditions": "50 ng/ml, three days in culture (FIG. 2A)", "method": "as §1"}, "[4]": {"tested_on": "corneal nerves of Thy-1-YFP mice", "test": "Corneal nerve regeneration with combinations of VEGF-A and VEGF-B", "format": "in vivo, mouse", "conditions": "ligand administered separately, two weeks post-injury (FIG. 14)", "method": "Thy-1-YFP mice were subjected to cornea epithelium debridement to ablate the superficial nerve endings that innervate the cornea Immediately after injury, the mice were treated with different combinations of VEGF-A and VEGF-B. As shown, combinations of VEGF ligands induce greater nerve regeneration in vivo.\nThe observed effects were also recapitulated in vivo. Thy-1-YFP neurofluorescent mice were used to induce a corneal epithelium injury that results in ablation of the superficial nerve endings of the cornea. The mice were then treated with different combinations of VEGF-A and VEGF-B, and nerve regeneration was analyzed after two weeks post-injury."}}}
{"molecule": "COc1cc2nccc(Oc3ccc(NC(=O)Nc4ccc(F)cc4F)c(F)c3)c2cc1OC", "note": "[Ki 8751]", "values": [{"measurement": "inhibition of VEGF-B induced neurite growth", "setting": "[1]; 5 nM, 1 hr before 50 ng/ml VEGF-B", "value": "does not block"}]}
{"molecule": "CC(C)c1cc(/C=C(\\C#N)C(=O)NCCCc2ccccc2)cc(C(C)C)c1O", "note": "[SU 1498]", "values": [{"measurement": "inhibition of VEGF-B induced neurite growth", "setting": "[1]; 10 μM, 1 hr before 50 ng/ml VEGF-B", "value": "does not block"}]}
{"molecule": "EGF: epidermal growth factor (Millipore 01-101), a known inducer of epithelial cell proliferation", "values": [{"measurement": "time of complete confluence of the scratch area", "setting": "[2]", "value": 24, "unit": "h"}, {"measurement": "time to complete closure of the scratch area", "setting": "[2]", "value": "< 24", "unit": "h"}, {"measurement": "onset of cell growth into the scratch area", "setting": "[2]; post-treatment", "value": 8, "unit": "h"}]}
{"molecule": "B1", "values": [{"measurement": "inhibition of VEGF-B induced neurite growth", "setting": "[1]; equal molar concentration (2.6 nM) with 50 ng/ml VEGF-B", "value": "inhibited"}]}
{"molecule": "B2", "values": [{"measurement": "pattern of neurite growth (elongation and branching)", "setting": "[3]", "value": "mainly neurite elongation with few branching nodes"}, {"measurement": "nerve regeneration", "setting": "[4]", "value": "induced greater nerve regeneration"}]}
